This is an account of results in US7875287B2, “Tc-labeled arylpiperazine derivatives for imaging serotonin receptor” (Korea Atomic Energy Research Institute, priority 2005, dated 2011).

A short description of data set [1]: Static image scan of rabbits after intravenous injection. The format is in vivo, male New Zealand white rabbits. The note with it: rabbit, image 5 min after injection. On the procedure: Static image of male New Zealand white rabbits scanned at 5 and 10 min.
At an image of 5 min. after the injection, high activity was found in the liver. A trace amount of ^99mTc-8-[3-({2-[4-(2-methoxy-phenyl)-piperazin-1-yl]-ethyl}-pyridin-2-yl-amino)-propyl]-[1,2,5,8]dithiadiazecan-6-one (25) seemed to be remained in the brain.

The nature of data set [2]: Paper electrophoresis in 0.1 M phosphate buffer (pH7.4). In kind it is physicochemical. To be noted: aqueous solution, 0.1 M phosphate buffer pH7.4, 45 min, 400 V (20 V/cm). How it is done: Filtered preparation was applied on a paper eluted with 0.1 M phosphate buffer (pH7.4) for 45 min. at a 400 V (20 V/cm).
The nature of data set [3]: Stability of 99mTc-complex by reversed phase HPLC. In kind it is physicochemical. The note with it: for approximately 4 hours; reaction mixture, RP-HPLC. On the procedure: Radiochemical purity of ^99mTc-complex (25) was determined by HPLC using a C-18 reverse-phase column as a stationary phase and a water/ACN as a mobile phase, while maintaining a flow rate of 1 ml/min.
The complex is stable (>90%) for approximately 4 hours.

Turning to “^99mTc-8-[3-({2-[4-(2-methoxy-phenyl)-piperazin-1-yl]-ethyl}-pyridin-2-yl-amino)-propyl]-[1,2,5,8]dithiadiazecan-6-one [Compound 25]”, in data set [1], the “activity in the liver on image” value was “high activity” and the “amount remained in the brain on image” value is recorded as “trace amount”. Further, the “charge observed in paper electrophoresis” value in data set [2] is “neutral charge”. Also, the “stability of the complex” value in data set [3] is greater than 90%.
